Broadly, the melting point is the temperature of the solid-liquid transition.

Molecules are shown by their SMILES.

For the compound `COc1ccc(CC(=O)Nc2cc3c(cc2[N+](=O)[O-])OC(C)(C)[C@H](O)[C@H]3OCc2ccccc2)cc1` [Synthesis example 8], the melting point was 117.8 to 119.1 °C.
To `CCCO[C@H]1c2cc(NC(=O)Cc3ccc(OC)cc3)c([N+](=O)[O-])cc2OC(C)(C)[C@@H]1O` (relative stereo) [Synthesis example 4, (3R*, 4S*)-3,4-dihydro-2,2-dimethyl-4-propoxy-6-(4-methoxyphenylacetylamino)-7-nitro-2H-1-benzopyran-3-ol] belongs 115 to 116 °C; to `COc1ccc(CC(=O)Nc2cc3c(cc2[N+](=O)[O-])OC(C)(C)[C@H](O)[C@H]3OCCc2ccccc2)cc1` [Synthesis example 6, Trans-3,4-dihydro-2,2-dimethyl-6-(4-methoxyphenyl)acetylamino-7-nitro-4-(2-phenylethoxy)-2H-1-benzoypyran-3-ol], 125.2 to 125.5 °C; to `COc1ccc(CC(=O)Nc2cc3c(cc2[N+](=O)[O-])OC(C)(C)[C@H](O)[C@H]3Oc2ccccc2)cc1` (relative stereo) [Synthesis example 7, Trans-3,4-dihydro-2,2-dimethyl-6-(4-methoxyphenyl)acetylamino-7-nitro-4-phenyloxy-2H-1-benzopyran-3-ol], 178 to 178.6 °C.

Source of the values: US6555574B1, “4-oxybenzopyran derivative” (Nissan Chemical Industries, Ltd., priority 1999, dated 2003).
